Measurements reported in US4753802A (Alza Corporation, priority 1986, dated 1988).
Structures can show the parent of a compound that is named as a salt.

Tests used:
[1] = Osmotic pressure of saturated verapamil hydrochloride solution / of the blend of verapamil plus osmotic solute (vapor pressure osmometry); type: physicochemical; details: for π, osmotic pressure of the blend of Sd plus So: verapamil plus the osmotic solute named in the line
Text: (§1) The results of the formulation are given in the accompanying table.

[2] = Solubility of verapamil and of osmotic solutes in a common aqueous fluid
Text: as §1

[3] = Cumulative amount of verapamil released over time from formulations with osmotic solutes; type: physicochemical; details: verapamil formulated with osmotic solute at equilibrium ratio
Text: as §1

[4] = in common aqueous fluid with verapamil

With COc1ccc(CCN(C)CCCC(C#N)(c2ccc(OC)c(OC)c2)C(C)C)cc1OC (stereo not drawn) [verapamil, reference compound] the “osmotic pressure of verapamil in the presence of mannitol” value ([1]; in the presence of mannitol) was “raised in the presence of mannitol”.

In the case of O=C(O)CCC(=O)O [Succinic Acid], the “π, osmotic pressure of the blend of Sd plus So” value [1] is reported as 22.9 atm.

With OC[C@@H](O)[C@@H](O)[C@H](O)[C@H](O)CO [Mannitol] the “π, osmotic pressure of the blend of Sd plus So” value [1] was 42.8 atm and the “So, solubility of the osmotic solute” value ([2]; common aqueous fluid) was 219 mg/mL.

With COc1ccc(CCN(C)CCCC(C#N)(c2ccc(OC)c(OC)c2)C(C)C)cc1OC (stereo not drawn) [Verapamil-HCl, verapamil hydrochloride, reference compound] the “osmotic pressure of a saturated aqueous solution” value ([1]; at 37° C., vapor pressure osmometry) was 11 atm, the “π, osmotic pressure” value ([1]; verapamil-HCl alone) was 10.9 atm and the “π, osmotic pressure” value ([1]; verapamil-HCl in AGF) was 13.0 atm. The “π, osmotic pressure” value ([1]; verapamil-HCl in AIF) was 13.3 atm.

For “Insulin: Insulin, listed as osmotic solute in the table”, the “So, solubility of the osmotic solute” value [2, 4] was 50 mg/mL and the “ST, total solubility of Sd and So” value ([2]; verapamil plus osmotic solute in a common aqueous fluid) was 197 mg/mL.

With COc1ccccc1OCC(O)CO (stereo not drawn) [Guaifenesin, reference compound] the “So, solubility of the osmotic solute” value ([2]; common aqueous fluid) was 81 mg/mL.

For O=C(O)CC(O)C(=O)O (stereo not drawn) [Malic Acid], the “So, solubility of the osmotic solute” value [2, 4] was 436 mg/mL.

For O=C1O[C@H]([C@@H](O)CO)C(O)=C1O [Ascorbic Acid], the “π, osmotic pressure of the blend of Sd plus So” value [1] was 76.8 atm.

With O=C(O)C(O)C(O)C(=O)O (stereo not drawn) [Sodium Tartrate] the “π, osmotic pressure of the blend of Sd plus So” value [1] was 100.0 atm.

For O=C(O)CCCCC(=O)O [Adipic Acid], the “π, osmotic pressure of the blend of Sd plus So” value [1] was 13.9 atm.

For O=C[C@H](O)[C@@H](O)[C@@H](O)[C@H](O)CO [D-Galactose], the “π, osmotic pressure of the blend of Sd plus So” value [1] was 87.1 atm and the “So, solubility of the osmotic solute” value [2, 4] was 457 mg/mL.

For O=C(O)/C=C/C(=O)O [Fumaric Acid], the “π, osmotic pressure of the blend of Sd plus So” value [1] was 21.4 atm and the “So, solubility of the osmotic solute” value ([2]; common aqueous fluid) was 77 mg/mL.

With O=C(O)CCC(=O)O [Disodium Succinate] the “π, osmotic pressure of the blend of Sd plus So” value [1] was 36.6 atm.

For O=C[C@H](O)[C@@H](O)[C@@H](O)CO [L-Arabinose], the “π, osmotic pressure of the blend of Sd plus So” value [1] was 110.3 atm and the “So, solubility of the osmotic solute” value ([2]; common aqueous fluid) was 473 mg/mL.

For O[C@H]1[C@H](O)[C@@H](O)[C@H](O)[C@@H](O)[C@H]1O [Inositol], the “cumulative amount of verapamil released over time” value [3] was “insufficient cumulative amount of verapamil released over time” and the “π, osmotic pressure of the blend of Sd plus So” value [1] was 20.6 atm.
